Legend:
Assay type in all cases: in vivo
[1] = system: Surinam grass (Brachiaria decumbens); test: Test B preemergence
How it was run: (§1)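 Visual injury scores, 0 = no effect to 100 = complete control, assigned against controls after 13 to 15 days in the greenhouse. Compounds formulated in non-phytotoxic solvent plus surfactant and applied to soil after planting (pre) or onto foliage of 1- to 4-leaf plants (post).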

[2] = system: lambsquarters (Chenopodium album); test: Test B preemergence
How it was run: as §1

[3] = system: cocklebur (Xanthium strumarium); test: Test B preemergence
How it was run: as §1

corn (Zea mays) = test: Test B preemergence
How it was run: as §1

[4] = system: morning glory (Ipomoea hederacea); test: Test B preemergence
How it was run: as §1

[5] = system: barnyardgrass (Echinochloa crus-galli); test: Test B preemergence
How it was run: as §1

rice (Oryza saliva) [6] = test: Test B preemergence
How it was run: as §1

[7] = system: giant foxtail (Setaria faberii); test: Test B preemergence
How it was run: as §1

[8] = system: velvetleaf (Abutilon theophrasti); test: Test B preemergence
How it was run: as §1

[9] = system: crabgrass (Digitaria sanguinalis); test: Test B preemergence
How it was run: as §1

[10] = system: pigweed (Amaranthus retroflexus); test: Test B preemergence
How it was run: as §1

Sunflower [11] = test: Test C preemergence; conditions: Rate 62 g/ha, scale 0 to 100
Sunflower [12] = test: Test C preemergence; conditions: Rate 250 g/ha, scale 0 to 100, 0 no effect, 100 complete control
[13] = system: Surinam grass (Brachiaria decumbens); test: Test B postemergence
How it was run: as §1

[14] = system: lambsquarters (Chenopodium album); test: Test B postemergence
How it was run: as §1

[15] = system: cocklebur (Xanthium strumarium); test: Test B postemergence
How it was run: as §1

[16] = system: morning glory (Ipomoea hederacea); test: Test B postemergence
How it was run: as §1

[17] = system: barnyardgrass (Echinochloa crus-galli); test: Test B postemergence
How it was run: as §1

[18] = system: giant foxtail (Setaria faberii); test: Test B postemergence
How it was run: as §1

[19] = system: crabgrass (Digitaria sanguinalis); test: Test B postemergence
How it was run: as §1

[20] = system: pigweed (Amaranthus retroflexus); test: Test B postemergence
How it was run: as §1

Nightshade = test: Test C preemergence; conditions: Rate 500 g/ha, visual evaluation after 12 to 14 days
[21] = system: smallflower flatsedge (Cyperus difformis); test: Test C flooded paddy test; conditions: for Flatsedge plant response rating: Flooded Paddy, Rate 500 g/ha, scale 0 to 100, 0 no effect, 100 complete control; for Plant response rating, Flatsedge / Plant response rating (scale 0 to 100), Flatsedge: flooded paddy test; for Plant response rating, Flatsedge: scale 0 to 100 (0 no effect, 100 complete control); for Plant response rating (scale 0 to 100), Flatsedge: Rate 62 g/ha, visually evaluated after 12 to 14 days, 0 = no effect, 100 = complete control
How it was run: (§2)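 Ratings come from visual comparison with control plants after 12 to 14 days in the greenhouse. Each species was at the 2-leaf stage when the flooded paddy was treated. Scores run from 0, meaning no effect, to 100, meaning complete control.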

[22] = system: duck salad (Heteranthera limosa); test: Test C flooded paddy test; conditions: for Ducksalad plant response rating: Flooded Paddy, Rate 500 g/ha, scale 0 to 100, 0 no effect, 100 complete control; for Plant response rating, Ducksalad / Plant response rating (scale 0 to 100), Ducksalad: flooded paddy test; for Plant response rating, Ducksalad: scale 0 to 100 (0 no effect, 100 complete control); for Plant response rating (scale 0 to 100), Ducksalad: Rate 62 g/ha, visually evaluated after 12 to 14 days, 0 = no effect, 100 = complete control
How it was run: as §2

[23] = system: barnyardgrass (Echinochloa crus-galli); test: Test C flooded paddy test; conditions: for Barnyardgrass plant response rating: Flooded Paddy, Rate 500 g/ha, scale 0 to 100, 0 no effect, 100 complete control; for Plant response rating, Barnyardgrass / Plant response rating (scale 0 to 100), Barnyardgrass: flooded paddy test; for Plant response rating, Barnyardgrass: scale 0 to 100 (0 no effect, 100 complete control); for Plant response rating (scale 0 to 100), Barnyardgrass: Rate 62 g/ha, visually evaluated after 12 to 14 days, 0 = no effect, 100 = complete control
How it was run: as §2

rice (Oryza saliva) [24] = test: Test C flooded paddy test; conditions: for Rice plant response rating: Flooded Paddy, Rate 500 g/ha, scale 0 to 100, 0 no effect, 100 complete control; for Plant response rating, Rice / Plant response rating (scale 0 to 100), Rice: flooded paddy test; for Plant response rating, Rice: scale 0 to 100 (0 no effect, 100 complete control); for Plant response rating (scale 0 to 100), Rice: Rate 62 g/ha, visually evaluated after 12 to 14 days, 0 = no effect, 100 = complete control
How it was run: as §2

[25] = Preemergence, Rate 500 g/ha, scale 0 to 100, 0 no effect, 100 complete control
[26] = preemergence, Rate 125 g/ha, scale of 0 to 100 where 0 is no effect and 100 is complete control, 13 to 15 days
[27] = Rate 125 g/ha, scale 0 to 100, 0 no effect, 100 complete control
[28] = Rate 500 g/ha, scale 0 (no effect) to 100 (complete control), 13 to 15 days
[29] = Rate 500 g/ha, scale 0 to 100, 0 is no effect, 100 is complete control, 13 to 15 days

CCC(C)c1ccn(C2CCN(c3ccc(F)c(C(F)(F)F)c3)C2=O)n1 (stereo not shown) [Compound 145]
Plant response rating, Surinam grass [1, 25]: 60 | Plant response rating, Surinam grass [1, 26]: 0 | Plant response rating, Lambsquarters [2, 25]: 100 | Plant response rating, Lambsquarters [2, 26]: 100 | Plant response rating, Cocklebur [3, 25]: 0 | Plant response rating, Cocklebur [3, 26]: 0 | Plant response rating, Corn (corn (Zea mays); [25]): 0 | Plant response rating, Corn (corn (Zea mays); [26]): 0 | Plant response rating, Morningglory [4, 25]: 0 | Plant response rating, Morningglory [4, 26]: 0 | Plant response rating, Barnyardgrass [5, 25]: 100 | Plant response rating, Barnyardgrass [5, 26]: 70 | Plant response rating, Rice (rice (Oryza saliva) [6]; [25]): 80 | Plant response rating, Rice (rice (Oryza saliva) [6]; [26]): 0 | Plant response rating, Foxtail, Giant [7, 25]: 100 | Plant response rating, Foxtail, Giant [7, 26]: 100 | Plant response rating, Velvetleaf [8, 25]: 0 | Plant response rating, Velvetleaf [8, 26]: 0 | Plant response rating, Crabgrass [9, 25]: 100 | Plant response rating, Crabgrass [9, 26]: 100 | Plant response rating, Pigweed [10, 25]: 100 | Plant response rating, Pigweed [10, 26]: 100 | Plant response rating, Sunflower (Sunflower [11]): 0 | Plant response rating, Sunflower (Sunflower [12]): 50 | Plant response rating, Surinam grass [13, 27]: 0 | Plant response rating, Surinam grass [13, 28]: 0 | Plant response rating, Lambsquarters [14, 27]: 80 | Plant response rating, Lambsquarters [14, 28]: 100 | Plant response rating, Cocklebur [15, 27]: 0 | Plant response rating, Cocklebur [15, 28]: 0 | Plant response rating, Morningglory [16, 27]: 0 | Plant response rating, Morningglory [16, 28]: 0 | Plant response rating, Barnyardgrass [17, 27]: 0 | Plant response rating, Barnyardgrass [17, 28]: 90 | Plant response rating, Foxtail, Giant [18, 27]: 0 | Plant response rating, Foxtail, Giant [18, 28]: 40 | Plant response rating, Crabgrass [19, 27]: 0 | Plant response rating, Crabgrass [19, 28]: 0 | Plant response rating, Pigweed [20, 27]: 0 | Plant response rating, Pigweed [20, 28]: 80 | Plant response rating (0 to 100), Nightshade (Nightshade): 90 | Flatsedge plant response rating [21]: 95 | Plant response rating, Flatsedge ([21]; Rate 125 g/ha): 80 | Plant response rating, Flatsedge ([21]; Rate 250 g/ha): 95 | Plant response rating (scale 0 to 100), Flatsedge [21]: 40 | Ducksalad plant response rating [22]: 80 | Plant response rating, Ducksalad ([22]; Rate 125 g/ha): 25 | Plant response rating, Ducksalad ([22]; Rate 250 g/ha): 80 | Plant response rating (scale 0 to 100), Ducksalad [22]: 20 | Barnyardgrass plant response rating [23]: 100 | Plant response rating, Barnyardgrass ([23]; Rate 125 g/ha): 65 | Plant response rating, Barnyardgrass ([23]; Rate 250 g/ha): 85 | Plant response rating (scale 0 to 100), Barnyardgrass [23]: 30 | Rice plant response rating (rice (Oryza saliva) [24]): 60 | Plant response rating, Rice (rice (Oryza saliva) [24]; Rate 125 g/ha): 0 | Plant response rating, Rice (rice (Oryza saliva) [24]; Rate 250 g/ha): 20 | Plant response rating (scale 0 to 100), Rice (rice (Oryza saliva) [24]): 0

CCC(C)c1ccn(C2OCN(c3cccc(OC(F)F)c3)C2=O)n1 (stereo not shown) [Compound 134]
Plant response rating, Surinam grass [1, 25]: 100 | Plant response rating, Surinam grass [1, 26]: 90 | Plant response rating, Lambsquarters [2, 25]: 100 | Plant response rating, Lambsquarters [2, 26]: 100 | Plant response rating, Cocklebur [3, 25]: 0 | Plant response rating, Cocklebur [3, 26]: 0 | Plant response rating, Corn (corn (Zea mays); [25]): 90 | Plant response rating, Corn (corn (Zea mays); [26]): 20 | Plant response rating, Morningglory [4, 25]: 0 | Plant response rating, Morningglory [4, 26]: 0 | Plant response rating, Barnyardgrass [5, 25]: 100 | Plant response rating, Barnyardgrass [5, 26]: 100 | Plant response rating, Rice (rice (Oryza saliva) [6]; [25]): 100 | Plant response rating, Rice (rice (Oryza saliva) [6]; [26]): 100 | Plant response rating, Foxtail, Giant [7, 25]: 100 | Plant response rating, Foxtail, Giant [7, 26]: 100 | Plant response rating, Velvetleaf [8, 25]: 0 | Plant response rating, Velvetleaf [8, 26]: 0 | Plant response rating, Crabgrass [9, 25]: 100 | Plant response rating, Crabgrass [9, 26]: 100 | Plant response rating, Pigweed [10, 25]: 100 | Plant response rating, Pigweed [10, 26]: 100 | Plant response rating, Sunflower (Sunflower [11]): 0 | Plant response rating, Sunflower (Sunflower [12]): 0 | Plant response rating, Surinam grass [13, 27]: 20 | Plant response rating, Surinam grass [13, 29]: 60 | Plant response rating, Lambsquarters [14, 27]: 100 | Plant response rating, Cocklebur [15, 27]: 30 | Plant response rating, Cocklebur [15, 29]: 30 | Plant response rating, Morningglory [16, 27]: 10 | Plant response rating, Barnyardgrass [17, 27]: 90 | Plant response rating, Barnyardgrass [17, 29]: 100 | Plant response rating, Foxtail, Giant [18, 27]: 30 | Plant response rating, Crabgrass [19, 27]: 20 | Plant response rating, Pigweed [20, 27]: 60 | Plant response rating (0 to 100), Nightshade (Nightshade): 90 | Flatsedge plant response rating [21]: 100 | Plant response rating, Flatsedge ([21]; Rate 125 g/ha): 100 | Plant response rating, Flatsedge ([21]; Rate 250 g/ha): 100 | Plant response rating (scale 0 to 100), Flatsedge [21]: 90 | Ducksalad plant response rating [22]: 100 | Plant response rating, Ducksalad ([22]; Rate 125 g/ha): 90 | Plant response rating, Ducksalad ([22]; Rate 250 g/ha): 100 | Plant response rating (scale 0 to 100), Ducksalad [22]: 60 | Barnyardgrass plant response rating [23]: 100 | Plant response rating, Barnyardgrass ([23]; Rate 125 g/ha): 100 | Plant response rating, Barnyardgrass ([23]; Rate 250 g/ha): 100 | Plant response rating (scale 0 to 100), Barnyardgrass [23]: 100 | Rice plant response rating (rice (Oryza saliva) [24]): 90 | Plant response rating, Rice (rice (Oryza saliva) [24]; Rate 125 g/ha): 60 | Plant response rating, Rice (rice (Oryza saliva) [24]; Rate 250 g/ha): 90 | Plant response rating (scale 0 to 100), Rice (rice (Oryza saliva) [24]): 0

Source: patent US7138361B2, “Herbicidal heterocycles” (E. I. du Pont de Nemours and Company, priority 2000, dated 2006)
